Assay results reported in US10517889B2, “Modulators of SMAD7 expression” (Ionis Pharmaceuticals, Inc., priority 2017, dated 2019).
Strand notation (5' to 3'): a small letter for the sugar, then the base; units joined by * are phosphorothioate-linked, units joined directly phosphodiester-linked; [ ] holds rarer units or linkages, { } end groups; capitals alone tell only the bases. k = constrained ethyl (cEt); [5mC] = 5-methylcytosine; d = 2'-deoxy (DNA)

Test system: human SMAD7 mRNA
Test: Antisense inhibition of human SMAD7 mRNA expression in Hep3B cells by 3-10-3 cEt gapmers, 10,000 nM, electroporation (Example 2)
Assay type: cell-based
Details: Hep3B cells, 10,000 nM antisense oligonucleotide, electroporation, approximately 24 hours, RT-PCR primer probe set RTS5062, relative to untreated control cells
Method in brief: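 qRT-PCR (RTS5062) of SMAD7 mRNA, normalised to RIBOGREEN total RNA, gave percent inhibition relative to untreated controls. Hep3B cells at 20,000 per well received 10,000 nM oligonucleotide by electroporation, with ~24 h treatment.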

Substance | % Inhibition [%]
800098 (antisense kT*kT*kT*dT*dA*dG*dG*dG*d[5mC]*d[5mC]*dT*d[5mC]*dA*kA*kA*kA) [compound 800098] | 1
799995 (k[5mC]*kT*kG*dT*dG*dA*dG*dG*d[5mC]*dA*d[5mC]*dT*dT*kG*kG*kA; antisense) [compound 799995] | 63
799892 (antisense kG*k[5mC]*kA*dT*d[5mC]*dA*dT*dT*dA*dA*dG*d[5mC]*d[5mC]*kA*kA*kT) [compound 799892] | 54
799913 (antisense kG*kG*k[5mC]*d[5mC]*dT*d[5mC]*dA*dG*dA*dG*dG*dA*dA*kG*kG*kG) [compound 799913] | 18

Same assay, conditions: Hep3B cells, electroporation with 10,000 nM antisense oligonucleotide, approximately 24 hours, RTS5062, percent inhibition of SMAD7 mRNA relative to untreated control cells

Substance | % Inhibition [%]
799529 (kG*kA*kA*dT*dT*dT*d[5mC]*dT*d[5mC]*dT*dT*dG*d[5mC]*kA*kT*kT; antisense) [compound 799529] | 27
799604 (k[5mC]*kA*kT*d[5mC]*dA*d[5mC]*d[5mC]*dT*d[5mC]*d[5mC]*d[5mC]*d[5mC]*dT*k[5mC]*k[5mC]*kA; antisense) [compound 799604] | 0
799553 (k[5mC]*k[5mC]*k[5mC]*d[5mC]*dG*d[5mC]*dT*dA*dG*dG*dG*dA*dA*k[5mC]*kA*kA; antisense) [compound 799553] | 46
799742 (antisense kA*kT*kA*dT*dT*dT*d[5mC]*d[5mC]*dT*dG*dT*dT*dA*kA*k[5mC]*kT) [compound 799742] | 23
799295 (antisense kG*kA*k[5mC]*dT*d[5mC]*dG*d[5mC]*dG*dG*d[5mC]*d[5mC]*dT*dT*kG*kA*kT) [compound 799295] | 30
799806 (antisense kG*kA*kG*dG*dA*dG*d[5mC]*dG*dA*dG*dA*dA*dG*kA*kG*kT) [compound 799806] | 6

Same assay, conditions: Hep3B cells, electroporation with 10,000 nM antisense oligonucleotide, approximately 24 hours, SMAD7 mRNA by RT-PCR (RTS5062), relative to untreated control cells

Substance | % Inhibition [%]
799923 (antisense kG*k[5mC]*k[5mC]*dT*dA*d[5mC]*dA*dT*dA*dT*dT*dT*d[5mC]*kG*k[5mC]*kA) [compound 799923] | 15
772606 (kA*kG*k[5mC]*d[5mC]*dA*dT*dT*d[5mC]*d[5mC]*d[5mC]*d[5mC]*dT*dG*kA*kG*kG; antisense) [compound 772606] | 41
798678 (antisense k[5mC]*kG*k[5mC]*dA*d[5mC]*dA*d[5mC]*d[5mC]*dA*dT*dG*dA*dA*kG*kA*kA) [compound 798678] | 45
830043 (kT*kT*kG*dG*d[5mC]*dA*dG*dG*dT*dT*dA*dA*dT*k[5mC]*kA*k[5mC]; antisense) [compound 830043] | 45
830103 (kA*kA*kG*d[5mC]*d[5mC]*d[5mC]*dG*d[5mC]*dT*d[5mC]*dT*d[5mC]*dA*kG*k[5mC]*k[5mC]; antisense) [compound 830103] | 39
799449 (antisense k[5mC]*kA*kG*d[5mC]*dA*d[5mC]*dT*dG*d[5mC]*dA*dT*d[5mC]*dG*kG*kA*kA) [compound 799449] | 37
830118 (kT*k[5mC]*k[5mC]*d[5mC]*dA*d[5mC]*d[5mC]*d[5mC]*dT*dA*dA*dA*d[5mC]*kT*kG*kA; antisense) [compound 830118] | 0
799513 (antisense kT*kA*k[5mC]*d[5mC]*dT*dT*dT*dA*dG*dA*dT*dT*dG*k[5mC]*kA*kT) [compound 799513] | 66
798832 (kA*kT*k[5mC]*dA*dT*dA*dG*dA*dA*dG*dA*dT*dA*kT*k[5mC]*k[5mC]; antisense) [compound 798832] | 41
799415 (antisense kG*k[5mC]*k[5mC]*dA*d[5mC]*dA*dG*d[5mC]*dA*dG*d[5mC]*dT*dG*kG*k[5mC]*kA) [compound 799415] | 0
830035 (antisense kA*kT*kT*dG*dG*d[5mC]*dT*dG*dA*dT*d[5mC]*dT*dG*kG*kA*kG) [compound 830035] | 48
799489 (antisense kT*k[5mC]*kT*dA*dA*dA*d[5mC]*d[5mC]*dA*dT*dT*dT*dT*kG*kA*kT) [compound 799489] | 0
800085 (antisense kA*kG*k[5mC]*dA*dG*d[5mC]*d[5mC]*d[5mC]*dT*dG*dT*dA*d[5mC]*kA*k[5mC]*kA) [compound 800085] | 37
799861 (kA*k[5mC]*k[5mC]*dG*d[5mC]*dA*dT*dG*d[5mC]*dG*dA*dT*d[5mC]*kG*kG*kT; antisense) [compound 799861] | 15
830065 (kA*kA*kT*dG*dG*dT*dG*d[5mC]*dT*d[5mC]*dT*dG*d[5mC]*k[5mC]*k[5mC]*kT; antisense) [compound 830065] | 43
800102 (antisense kA*k[5mC]*kG*dA*dG*dA*d[5mC]*dA*dG*dA*dA*dA*dG*kA*kA*kG) [compound 800102] | 21
799987 (k[5mC]*kA*kA*dA*d[5mC]*dA*dT*d[5mC]*dA*d[5mC]*d[5mC]*dA*d[5mC]*kG*k[5mC]*k[5mC]; antisense) [compound 799987] | 57
800022 (kG*kG*kA*dA*dG*dA*dG*d[5mC]*d[5mC]*dT*dT*dG*dG*k[5mC]*k[5mC]*kT; antisense) [compound 800022] | 30
830029 (antisense kT*k[5mC]*kA*d[5mC]*dT*d[5mC]*d[5mC]*dA*d[5mC]*dT*d[5mC]*dA*d[5mC]*k[5mC]*kG*kA) [compound 830029] | 56

Same assay, conditions: Hep3B cells, electroporation with 10,000 nM antisense oligonucleotide, approximately 24 hours, primer probe set RTS5062, relative to untreated control cells

Substance | % Inhibition [%] | % inhibition of SMAD7 mRNA expression [%]
799053 (antisense kA*kG*k[5mC]*d[5mC]*dT*dG*dT*dG*dG*dA*d[5mC]*dA*dG*kG*k[5mC]*k[5mC]) [compound 799053] | 0 | –
799092 (antisense kG*kG*k[5mC]*dA*d[5mC]*dT*dG*dG*dG*dT*dG*dA*dG*k[5mC]*kA*kA) [compound 799092] | – | 30
798706 (antisense k[5mC]*kG*kG*d[5mC]*dT*dG*dT*d[5mC]*d[5mC]*dG*dT*d[5mC]*dG*k[5mC]*k[5mC]*k[5mC]) [compound 798706] | – | 1
799072 (antisense kG*k[5mC]*kA*dG*dG*dA*dA*dG*dG*dG*dA*dA*dT*kA*kA*kG) [compound 799072] | – | 55
799153 (antisense kG*kT*kT*dA*dG*dG*dT*dG*dT*d[5mC]*dA*dG*d[5mC]*k[5mC]*kT*kA) [compound 799153] | 68 | –
790468 (kG*k[5mC]*kG*dA*dG*dG*dA*dG*dA*dA*dA*dA*dG*kT*k[5mC]*kG; antisense) [compound 790468] | – | 0
798979 (antisense kG*kT*kG*dT*dT*dT*dG*dG*dT*dG*dG*dT*dG*k[5mC]*kT*kT) [compound 798979] | 19 | –
799203 (antisense kG*kG*kT*dT*dT*dT*dT*dT*dT*dT*d[5mC]*dA*dG*kG*kA*kG) [compound 799203] | – | 56

Same assay, conditions: Hep3B cells, electroporation, 10,000 nM antisense oligonucleotide, approximately 24 hours, RTS5062, relative to untreated control cells

Substance | % inhibition of SMAD7 mRNA expression [%]
799635 (kA*k[5mC]*kA*dG*dA*d[5mC]*dT*dG*d[5mC]*d[5mC]*dA*dA*dA*kT*k[5mC]*kA; antisense) [compound 799635] | 28
799535 (kA*kA*k[5mC]*dT*dT*dA*dA*dG*dG*d[5mC]*dA*dT*dA*kT*kA*kA; antisense) [compound 799535] | 42
799597 (kA*kA*k[5mC]*dT*d[5mC]*dT*dG*dA*dA*d[5mC]*dG*dG*dA*kA*kA*kG; antisense) [compound 799597] | 46
799615 (kG*kG*kA*dG*dA*dG*dG*dA*d[5mC]*d[5mC]*dG*dG*d[5mC]*k[5mC]*kT*kT; antisense) [compound 799615] | 24
799501 (antisense kA*kA*kA*dA*dG*dA*dG*d[5mC]*dA*dG*dA*d[5mC]*dG*kG*kG*k[5mC]) [compound 799501] | 0
799793 (kG*kT*kT*d[5mC]*dT*dT*d[5mC]*d[5mC]*dT*dG*d[5mC]*dT*dG*kT*k[5mC]*kA; antisense) [compound 799793] | 30

Same assay, conditions: SMAD7 mRNA, Hep3B cells, 10,000 nM antisense oligonucleotide, electroporation, approximately 24 hours, primer probe set RTS5062, relative to untreated control cells

Substance | % Inhibition [%]
829739 (antisense kT*kG*k[5mC]*dT*dA*dA*dG*dG*dA*dG*d[5mC]*dG*dA*kA*k[5mC]*kA) [compound 829739] | 44
829742 (antisense k[5mC]*kG*k[5mC]*d[5mC]*dG*dG*dA*d[5mC]*dG*dA*dG*d[5mC]*dG*k[5mC]*kA*kG) [compound 829742] | 43
829733 (antisense kA*k[5mC]*k[5mC]*dA*dT*dG*dA*dA*dG*dA*dA*dG*dT*k[5mC]*kG*kG) [compound 829733] | 54

Same assay, conditions: SMAD7 mRNA, Hep3B cells, electroporation with 10,000 nM antisense oligonucleotide, approximately 24 hours, primer probe set RTS5062, relative to untreated control cells

Substance | % Inhibition [%]
829918 (antisense kG*kA*kG*dT*dG*dT*dA*dT*dG*dA*dG*dT*dT*kG*kT*kA) [compound 829918] | 53
829988 (kG*k[5mC]*k[5mC]*dG*d[5mC]*dG*dA*dG*dG*d[5mC]*dG*dG*dT*kG*kA*kT; antisense) [compound 829988] | 27
829961 (kT*kG*kA*dT*dT*dA*dT*dT*dA*dA*dT*dG*dG*kT*k[5mC]*kT; antisense) [compound 829961] | 14
829808 (kG*kG*kA*dG*dA*d[5mC]*dT*d[5mC]*dT*dA*dG*dT*dT*k[5mC]*kG*k[5mC]; antisense) [compound 829808] | 53
